Assay results taken from publication PMC3176174 (OncoTargets and therapy, 2011).

Key:
Assay in all cases: cells
Type in all cases: cell-based, human
MOLT-3 cell line = test system: MOLT-3 cell line
TIB-202 cell line = test system: TIB-202 cell line
SEM cell line = test system: SEM cell line
B1 cell line = test system: B1 cell line
KOPN8 cell line = test system: KOPN8 cell line

Compound | IC50 (MOLT-3 cell line; Homo sapiens, MOLT-3, 96 h) [µM] | IC50 (TIB-202 cell line; Homo sapiens, 96 h) [µM] | IC50 (SEM cell line; Homo sapiens, 96 h) [µM] | IC50 (B1 cell line; Homo sapiens, 96 h) [µM] | IC50 (KOPN8 cell line; Homo sapiens, KOPN-8) [µM] | IC50 (KOPN8 cell line; Homo sapiens, KOPN-8, 96 h) [µM] | IC50 (MOLT-3 cell line; Table S1, MOLT-3, 96 hours) [µM] | IC50 (TIB-202 cell line; Table S1, TIB-202, 96 hours) [µM] | IC50 (SEM cell line; Table S1, SEM, 96 hours) [µM] | IC50 (B1 cell line; Table S1, B1, 96 hours) [µM] | IC50 (KOPN8 cell line; Table S1, KOPN8, 96 hours) [µM]
CCN(CC)CCCC(C)Nc1c2ccc(Cl)cc2nc2ccc(OC)cc12 (centres unmarked) [Acrichine] | 4.07 | 4.5 | 6.4 | 4.63 | 0.722 |  |  |  |  |  | 
Oc1ncnc2[nH]ncc12 [Allopurinol] | > 10 | > 5 | > 10 | > 10 |  | > 5 |  |  |  |  | 
CN(C)c1nc(N(C)C)nc(N(C)C)n1 [Altretamine] | > 10 | > 10 | > 10 | > 10 |  | > 10 |  |  |  |  | 
NCCCNCCSP(=O)(O)O [Amifostine] | > 10 | > 10 | > 10 | > 10 |  | > 10 |  |  |  |  | 
NCC(=O)CCC(=O)O [Aminolevulinic acid] | > 10 | > 10 | > 10 | > 10 |  | > 10 |  |  |  |  | 
CC(C)(C#N)c1cc(Cn2cncn2)cc(C(C)(C)C#N)c1 [Anastrozole] | > 10 | > 10 | 2.08 | > 10 |  | > 10 |  |  |  |  | 
Nc1ncn([C@@H]2O[C@H](CO)[C@@H](O)[C@H]2O)c(=O)n1 [Azacitidine] | 6.21 | 5.2 | 1.3 | 5.07 |  | 0.836 |  |  |  |  | 
CC(C)C[C@H](NC(=O)[C@H](Cc1ccccc1)NC(=O)c1cnccn1)B(O)O [Bortezomib] | > 10 | 0.00571 | < 0.01 | 0.00397 |  | < 0.01 |  |  |  |  | 
CS(=O)(=O)OCCCCOS(C)(=O)=O [Busulfan] | 6.36 | > 5 | > 10 | > 10 |  | > 5 |  |  |  |  | 
CCCCCOC(=O)Nc1nc(=O)n([C@@H]2O[C@H](C)[C@@H](O)[C@H]2O)cc1F [Capecitabine] | > 10 | > 10 | > 10 | > 10 |  | > 10 |  |  |  |  | 
O=NN(CCCl)C(=O)NCCCl [Carmustine] | > 10 | > 5 | > 10 | > 10 |  | > 5 |  |  |  |  | 
Cc1ccc(-c2cc(C(F)(F)F)nn2-c2ccc(S(N)(=O)=O)cc2)cc1 [Celecoxib] | > 10 | > 10 | > 10 | > 10 |  | > 10 |  |  |  |  | 
O=C(O)CCCc1ccc(N(CCCl)CCCl)cc1 [Chlorambucil] | 5.56 | 4.47 | 7.29 | 6.41 |  | 3.38 |  |  |  |  | 
N.N.[Cl][Pt][Cl] [Cisplatin] |  |  |  |  |  |  | > 10 | > 5 | > 10 | > 10 | > 5
O=P1(N(CCCl)CCCl)NCCCO1 (centres unmarked) [Cyclophosphamide] | > 10 | > 5 | > 10 | > 10 |  | > 5 |  |  |  |  | 
CN(C)/N=N/c1[nH]cnc1C(N)=O [Dacarbazine] | > 10 | > 10 | > 10 | > 10 |  | > 10 |  |  |  |  | 
Cc1nc(Nc2ncc(C(=O)Nc3c(C)cccc3Cl)s2)cc(N2CCN(CCO)CC2)n1 [Dasatinib] | > 10 | < 1e-06 | 4.05 | < 1e-06 |  | 0.00748 |  |  |  |  | 
C[C@@H](CN1CC(=O)NC(=O)C1)N1CC(=O)NC(=O)C1 [Dexrazoxone] | > 10 | > 5 | > 10 | > 10 |  | > 5 |  |  |  |  | 
COc1cccc2c1C(=O)c1c(O)c3c(c(O)c1C2=O)C[C@@](O)(C(=O)CO)C[C@@H]3O[C@H]1C[C@H](N)[C@H](O)[C@H](C)O1 [Doxorubicin] | 7.84 | 0.0585 | < 0.01 | 0.12 |  | < 0.01 |  |  |  |  | 
C#Cc1cccc(Nc2ncnc3cc(OCCOC)c(OCCOC)cc23)c1 [Erlotinib] | 5.7 | 6.68 | 1 | 2.98 |  | 5.82 |  |  |  |  | 
C[C@]12CC[C@@H]3c4ccc(OC(=O)N(CCCl)CCCl)cc4CC[C@H]3[C@@H]1CC[C@@H]2O [Estramustine] | > 10 | > 10 | > 10 | > 10 |  | > 10 |  |  |  |  | 
CO[C@H]1C[C@@H]2CC[C@@H](C)[C@@](O)(O2)C(=O)C(=O)N2CCCC[C@H]2C(=O)O[C@H]([C@H](C)C[C@@H]2CC[C@@H](OCCO)[C@H](OC)C2)CC(=O)[C@H](C)/C=C(\C)[C@@H](O)[C@@H](OC)C(=O)[C@H](C)C[C@H](C)/C=C/C=C/C=C/1C [Everolimus] | > 10 | < 0.01 | < 0.01 | 0.834 |  | < 0.01 |  |  |  |  | 
C=C1C[C@@H]2[C@H](CC[C@]3(C)C(=O)CC[C@@H]23)[C@@]2(C)C=CC(=O)C=C12 [Exemestane] | > 10 | > 10 | 2.08 | > 10 |  | 8.89 |  |  |  |  | 

Compound | IC50 (MOLT-3 cell line; Homo sapiens, MOLT-3, 96 h) [µM] | IC50 (TIB-202 cell line; Homo sapiens, 96 h) [µM] | IC50 (SEM cell line; Homo sapiens, 96 h) [µM] | IC50 (B1 cell line; Homo sapiens, 96 h) [µM] | IC50 (KOPN8 cell line; Homo sapiens, KOPN-8) [µM] | IC50 (KOPN8 cell line; Homo sapiens, KOPN-8, 96 h) [µM] | IC50 (MOLT-3 cell line; Table S1, MOLT-3, 96 hours) [µM] | IC50 (TIB-202 cell line; Table S1, TIB-202, 96 hours) [µM] | IC50 (SEM cell line; Table S1, SEM, 96 hours) [µM] | IC50 (B1 cell line; Table S1, B1, 96 hours) [µM] | IC50 (KOPN8 cell line; Table S1, KOPN8, 96 hours) [µM]
O=c1[nH]c(=O)n([C@H]2C[C@H](O)[C@@H](CO)O2)cc1F [Floxuridine] | > 10 | > 5 | > 10 | 8.48 |  | > 5 |  |  |  |  | 
O=c1[nH]cc(F)c(=O)[nH]1 [Fluorouracil] | 7.11 | > 5 | > 10 | > 10 |  | > 5 |  |  |  |  | 
C[C@]12CC[C@@H]3c4ccc(O)cc4C[C@@H](CCCCCCCCC[S+]([O-])CCCC(F)(F)C(F)(F)F)[C@H]3[C@@H]1CC[C@@H]2O (some centres unmarked) [Fulvestrant] | > 10 | > 10 | > 10 | > 10 |  | 7.64 |  |  |  |  | 
NC(=O)NO [Hydroxyurea] |  |  |  |  |  |  | > 10 | > 5 | > 10 | > 10 | > 5
O=P1(NCCCl)OCCCN1CCCl (centres unmarked) [Ifosfamide] | > 10 | > 5 | > 10 | > 10 |  | > 5 |  |  |  |  | 
CC(C)Cn1cnc2c(N)nc3ccccc3c21 [Imiquimod] | > 10 | > 10 | > 10 | > 10 |  | 2.9 |  |  |  |  | 
CCc1c2c(nc3ccc(OC(=O)N4CCC(N5CCCCC5)CC4)cc13)-c1cc3c(c(=O)n1C2)COC(=O)[C@]3(O)CC [Irinotecan] | 3.92 | 2.53 | 3.4 | 2.29 |  | 1.69 |  |  |  |  | 
CS(=O)(=O)CCNCc1ccc(-c2ccc3ncnc(Nc4ccc(OCc5cccc(F)c5)c(Cl)c4)c3c2)o1 [Lapatinib] | > 10 | 7.42 | 4.73 | 5.7 |  | 5.2 |  |  |  |  | 
Nc1cccc2c1CN(C1CCC(=O)NC1=O)C2=O (centres unmarked) [Lenalidomide] | 10 | > 10 | > 10 | > 10 |  | > 10 |  |  |  |  | 
N#Cc1ccc(C(c2ccc(C#N)cc2)n2cncn2)cc1 [Letrozole] | > 10 | > 10 | > 10 | > 10 |  | > 10 |  |  |  |  | 
O=NN(CCCl)C(=O)NC1CCCCC1 [Lomustine] | > 10 | > 5 | 9.35 | 8.32 |  | > 5 |  |  |  |  | 
CC(=O)O[C@]1(C(C)=O)CC[C@H]2[C@@H]3C=C(C)C4=CC(=O)CC[C@]4(C)[C@H]3CC[C@@]21C [Megestrol acetate] | > 10 | > 5 | > 10 | > 10 |  | > 5 |  |  |  |  | 
N[C@@H](Cc1ccc(N(CCCl)CCCl)cc1)C(=O)O [Melphalan] | 1.03 | 2.2 | 5.8 | 4.08 |  | 0.425 |  |  |  |  | 
S=c1[nH]cnc2nc[nH]c12 [Mercaptopurine] | > 10 | > 5 | > 10 | > 10 |  | > 5 |  |  |  |  | 
COc1c2occc2cc2ccc(=O)oc12 [Methoxsalen] | > 10 | > 5 | > 10 | > 10 |  | > 5 |  |  |  |  | 
Clc1ccc(C(c2ccccc2Cl)C(Cl)Cl)cc1 (centres unmarked) [Mitotane] | > 10 | > 5 | > 10 | > 10 |  | > 5 |  |  |  |  | 
COc1nc(N)nc2c1ncn2[C@@H]1O[C@H](CO)[C@@H](O)[C@@H]1O [Nelarabine] | 1.23 | > 10 | > 10 | > 10 |  | > 10 |  |  |  |  | 
Cc1cn(-c2cc(NC(=O)c3ccc(C)c(Nc4nccc(-c5cccnc5)n4)c3)cc(C(F)(F)F)c2)cn1 [Nilotinib] | > 10 | < 0.01 | > 10 | < 0.01 |  | > 10 |  |  |  |  | 
O=C1[O][Pt]2([NH][C@@H]3CCCC[C@H]3[NH]2)[O]C1=O [Oxaliplatin] |  |  |  |  |  |  | 0.969 | 6.2 | 5.67 | 3.68 | 0.309
OC[C@H]1O[C@@H](n2cnc3c2NC=NC[C@H]3O)C[C@@H]1O [Pentostatin] | > 10 | > 5 | > 10 | > 10 |  | > 5 |  |  |  |  | 
O=C(CCBr)N1CCN(C(=O)CCBr)CC1 [Pipobroman] | 6.35 | 4.34 | 4.32 | 2.63 |  | 0.389 |  |  |  |  | 
CNNCc1ccc(C(=O)NC(C)C)cc1 [Procarbazine] | > 10 | > 5 | > 10 | > 10 |  | > 5 |  |  |  |  | 
O=C(c1ccc(OCCN2CCCCC2)cc1)c1c(-c2ccc(O)cc2)sc2cc(O)ccc12 [Raloxifene] | > 10 | > 10 | 4.44 | > 10 |  | 8.3 |  |  |  |  | 
